SMILES strings stand for the structures. Starred links: 1 amine or outer side, 2 acyl side, 3 side chain; linkers in the order of their positions; H or OH if unused. Positions of bridges follow the written chain, without caps; N, C: chain ends. Non-standard residues stand in square brackets, D forms with d. Residues, ends and D or L forms follow the SMILES beside them. Groups on a side chain read outwards from the residue. *: point of attachment. X29 = O=C(O)CCCCCCCCCCCCCCCCC(=O)N[C@H](CCC(=O)NCCCC[C@@H](NC(=O)NCC(=O)[C@H](CSCC(=O)[*:1])N[*:2])C(=O)O)C(=O)O; εLys(α-Octadecanedioyl) = O=C(O)CCCCCCCCCCCCCCCCC(=O)N[C@@H](CCCCN*)C(=O)O; X13 = O=C(O)CCCCCCCCCCCCCCC(=O)N[C@@H](CCC(=O)NCCCOCCOCCOCCCN*)C(=O)O; X25 = CCCCCCCC[C@@H](NC(=O)CCC(=O)NCCCOCCOCCOCCCN*)C(=O)O; Trp(1-CH2COOH) = N[C@@H](Cc1cn(CC(=O)O)c2ccccc12)C(=O)O; X23 = O=C(CCCCOCCOCCOCCCN[*:3])C[C@H](N[*:1])C(=O)[*:2]; X14 = O=C(O)CCCCCCCCCCNC(=O)CCC(=O)NCCCOCCOCCOCCCN*; X5 = O=C(O)CCCCCCCCCCCCCCCCC(=O)NCCCOCCOCCOCCCN*; C16 diacid = O=C(O)CCCCCCCCCCCCCCC(=O)*; γGlu = O=C(O)[C@H](CCC(=O)[*:2])N[*:1]; d(cisHyp) = O=C(O)[C@H]1C[C@@H](O)CN1; Hyp = O=C(O)[C@@H]1C[C@@H](O)CN1; NMeNle = CCCC[C@H](NC)C(=O)O; NMeA = CN[C@@H](C)C(=O)O; Aun = NCCCCCCCCCCC(=O)O; Dab = NCC[C@H](N)C(=O)O; Dap = NC[C@H](N)C(=O)O; Ava = NCCCCC(=O)O

By IC50 is commonly meant the concentration that inhibits the measured activity by half.

T1 sequence (Q9NZQ7 with tags, fused parts or gaps): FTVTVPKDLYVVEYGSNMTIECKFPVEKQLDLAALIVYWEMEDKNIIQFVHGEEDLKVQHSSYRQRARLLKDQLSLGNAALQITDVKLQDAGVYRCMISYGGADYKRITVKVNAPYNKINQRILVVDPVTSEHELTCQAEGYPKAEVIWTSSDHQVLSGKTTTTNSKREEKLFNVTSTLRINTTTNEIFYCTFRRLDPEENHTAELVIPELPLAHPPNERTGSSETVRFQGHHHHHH

The first assay concerns the target T1, PD-L1 (Homo sapiens, UniProt Q9NZQ7).
T1 construct: hPDL1(19-239)-TVMV-His; made in house; host or cells: HEK293T
The assay is described as follows: PD-1/PD-L1 Homogenous Time-Resolved Fluorescence (HTRF) binding assay (PD-1-Ig/PD-L1-His). The settings on record: inhibition of PD-1-Ig binding to PD-L1-TVMV-His; value given as number; read-out: HTRF IC50. Put shortly: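 Inhibitors pre-incubated 15 min with PD-L1-His (10 nM final), then PD-1-Ig (20 nM final) added for 15 min in dPBS/0.1% BSA/0.05% Tween-20. Eu-cryptate anti-Ig (1 nM) and APC anti-His (20 nM) added, 30 min equilibration, 665/620 nm HTRF ratio read.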
For the compound `CCCC[C@H]1C(=O)N(C)[C@@H](CCCC)C(=O)N[C@@H](CC(C)C)C(=O)N[C@H](C(=O)NCCCOCCOCCOCCCNC(=O)CCCCCCCCCCCCCCCCC(=O)O)CSCC(=O)N[C@@H](Cc2ccc(O)cc2)C(=O)N(C)[C@@H](C)C(=O)N[C@@H](CC(N)=O)C(=O)N2CCC[C@H]2C(=O)N[C@@H](CN)C(=O)N[C@@H](CCC(N)=O)C(=O)N2C[C@H](O)C[C@H]2C(=O)N[C@@H](Cc2c[nH]c3ccccc23)C(=O)N[C@@H](CO)C(=O)N[C@@H](Cc2cn(CC(=O)O)c3ccccc23)C(=O)N1C` [Example 11133] ({CH2CO}-Y[NMeA]NP[Dap]Q[Hyp]WS[Trp(1-CH2COOH)][NMeNle][NMeNle]LC-X5; thioether N-14), the IC50 stood at 1570 nM.

The assay is the same for the next values; noted with them: inhibition of PD-1-Ig binding to PD-L1-TVMV-His; value given as range class; read-out: HTRF IC50.
With `CCCC[C@H]1C(=O)N(C)[C@@H](CCCC)C(=O)N[C@@H](CC(C)C)C(=O)N[C@H](C(=O)CNC(=O)N[C@H](CCCCNC(=O)CC[C@@H](NC(=O)CCCCCCCCCCCCCCCCC(=O)O)C(=O)O)C(=O)O)CSCC(=O)N[C@@H](Cc2ccc(O)cc2)C(=O)N(C)[C@@H](C)C(=O)N[C@@H](CC(N)=O)C(=O)N2CCC[C@H]2C(=O)N[C@@H](CN)C(=O)N[C@@H](CC(C)C)C(=O)N2C[C@H](O)C[C@H]2C(=O)N[C@@H](Cc2c[nH]c3ccccc23)C(=O)N[C@@H](CCN)C(=O)N[C@@H](Cc2cn(CC(=O)O)c3ccccc23)C(=O)N1C` [Example 11134] (Y[NMeA]NP[Dap]L[Hyp]W[Dab][Trp(1-CH2COOH)][NMeNle][NMeNle]L; linker N-C via X29), the IC50 was 10 to 99 nM.
Still for that read-out and setting: then `CCCCCCCC[C@@H](NC(=O)CCC(=O)NCCCOCCOCCOCCCNC(=O)[C@@H]1CSCC(=O)N[C@@H](Cc2ccc(O)cc2)C(=O)N(C)[C@@H](C)C(=O)N[C@@H](CC(N)=O)C(=O)N2CCC[C@H]2C(=O)N[C@@H](CN)C(=O)N[C@@H](CC(C)C)C(=O)N2C[C@H](O)C[C@H]2C(=O)N[C@@H](Cc2c[nH]c3ccccc23)C(=O)N[C@@H](CCN)C(=O)N[C@@H](Cc2cn(CC(=O)O)c3ccccc23)C(=O)N(C)[C@@H](CCCC)C(=O)N(C)[C@@H](CCCC)C(=O)N[C@@H](CC(C)C)C(=O)N1)C(=O)O` [Example 11135] ({CH2CO}-Y[NMeA]NP[Dap]L[Hyp]W[Dab][Trp(1-CH2COOH)][NMeNle][NMeNle]LC-X25; thioether N-14), with 10 to 99 nM.
As to `CCCC[C@H]1C(=O)N(C)[C@@H](CCCC)C(=O)N[C@@H](CC(C)C)C(=O)N[C@H](C(=O)NCC(=O)NCC(=O)NCC(=O)NCCCCC(=O)O)CSCC(=O)N[C@@H](Cc2ccc(O)cc2)C(=O)N(C)[C@@H](C)C(=O)N[C@@H](CC(N)=O)C(=O)N2CCC[C@H]2C(=O)N[C@@H](CN)C(=O)N[C@@H](CC(C)C)C(=O)N2C[C@H](O)C[C@@H]2C(=O)N[C@@H](Cc2c[nH]c3ccccc23)C(=O)N[C@@H](CCN)C(=O)N[C@@H](Cc2cn(CC(=O)O)c3ccccc23)C(=O)N1C` [Example 11137] ({CH2CO}-Y[NMeA]NP[Dap]L[d(cisHyp)]W[Dab][Trp(1-CH2COOH)][NMeNle][NMeNle]LCGGG[Ava]-OH; thioether N-14), the IC50 is 10 to 99 nM.
On the same count and under the same terms, then `CCCC[C@H]1C(=O)N(C)[C@@H](CCCC)C(=O)N[C@@H](CC(C)C)C(=O)N[C@H](C(=O)NCCCOCCOCCOCCCNC(=O)CCC(=O)NCCCCCCCCCCC(=O)O)CSCC(=O)N[C@@H](Cc2ccc(O)cc2)C(=O)N(C)[C@@H](C)C(=O)N[C@@H](CC(N)=O)C(=O)N2CCC[C@H]2C(=O)N[C@@H](CN)C(=O)N[C@@H](CC(C)C)C(=O)N2C[C@H](O)C[C@@H]2C(=O)N[C@@H](Cc2c[nH]c3ccccc23)C(=O)N[C@@H](CCN)C(=O)N[C@@H](Cc2cn(CC(=O)O)c3ccccc23)C(=O)N1C` [Example 11138] ({CH2CO}-Y[NMeA]NP[Dap]L[d(cisHyp)]W[Dab][Trp(1-CH2COOH)][NMeNle][NMeNle]LC-X14; thioether N-14), with 10 to 99 nM.
On the same count and under the same terms, in the case of `CCCC[C@H]1C(=O)N(C)[C@@H](CCCC)C(=O)N[C@@H](CC(C)C)C(=O)N[C@H](C(=O)NCCCOCCOCCOCCCNC(=O)CCC(=O)NCCCCCCCCCCC(=O)O)CSCC(=O)N[C@@H](Cc2ccc(O)cc2)C(=O)N(C)[C@@H](C)C(=O)N[C@@H](CCC(=O)O)C(=O)N2CCC[C@H]2C(=O)N[C@@H](Cc2cnc[nH]2)C(=O)N[C@@H](CCCCN)C(=O)N2C[C@H](O)C[C@H]2C(=O)N[C@@H](Cc2c[nH]c3ccccc23)C(=O)N[C@@H](CCCCN)C(=O)N[C@@H](Cc2cn(CC(=O)O)c3ccccc23)C(=O)N1C` [Example 11139] ({CH2CO}-Y[NMeA]EPHK[Hyp]WK[Trp(1-CH2COOH)][NMeNle][NMeNle]LC-X14; thioether N-14) it was 10 to 99 nM; in that of `CCCC[C@H]1C(=O)N(C)[C@@H](CCCC)C(=O)N[C@@H](CC(C)C)C(=O)N[C@H](C(=O)NCC(=O)NCCCC[C@H](NC(=O)CCCCCCCCCCCCCCCCC(=O)O)C(=O)O)CSCC(=O)N[C@@H](Cc2ccc(O)cc2)C(=O)N(C)[C@@H](C)C(=O)N[C@@H](CC(N)=O)C(=O)N2CCC[C@H]2C(=O)N[C@@H](CN)C(=O)N[C@@H](CC(C)C)C(=O)N2C[C@H](O)C[C@@H]2C(=O)N[C@@H](Cc2c[nH]c3ccccc23)C(=O)N[C@@H](CCN)C(=O)N[C@@H](Cc2cn(CC(=O)O)c3ccccc23)C(=O)N1C` [Example 11141] ({CH2CO}-Y[NMeA]NP[Dap]L[d(cisHyp)]W[Dab][Trp(1-CH2COOH)][NMeNle][NMeNle]LCG-{εLys(α-Octadecanedioyl)}; thioether N-14), 10 to 99 nM.
Same read-out and setting: in the case of `CCCC[C@H]1C(=O)N(C)[C@@H](CCCC)C(=O)N[C@@H](CC(C)C)C(=O)N[C@H](C(=O)NCCCC[C@H](NC(=O)CCCCCCCCCCCCCCCCC(=O)O)C(=O)O)CSCC(=O)N[C@@H](Cc2ccc(O)cc2)C(=O)N(C)[C@@H](C)C(=O)N[C@@H](CC(N)=O)C(=O)N2CCC[C@H]2C(=O)N[C@@H](CN)C(=O)N[C@@H](CC(C)C)C(=O)N2C[C@H](O)C[C@@H]2C(=O)N[C@@H](Cc2c[nH]c3ccccc23)C(=O)N[C@@H](CCN)C(=O)N[C@@H](Cc2cn(CC(=O)O)c3ccccc23)C(=O)N1C` [Example 11143] ({CH2CO}-Y[NMeA]NP[Dap]L[d(cisHyp)]W[Dab][Trp(1-CH2COOH)][NMeNle][NMeNle]LC-{εLys(α-Octadecanedioyl)}; thioether N-14) it was 0.3 to 9.9 nM.
As for `CCCC[C@H]1C(=O)N(C)[C@@H](CCCC)C(=O)N[C@@H](CCC(=O)O)C(=O)N[C@H](C(=O)NCC(=O)NCC(=O)NCC(=O)NCCCCCCCCCCC(=O)O)CSCC(=O)N[C@@H](Cc2ccc(O)cc2)C(=O)N(C)[C@@H](C)C(=O)N[C@@H](CC(=O)O)C(=O)N2CCC[C@H]2C(=O)N[C@@H](CN)C(=O)N[C@@H](CC(C)C)C(=O)N2C[C@H](O)C[C@@H]2C(=O)N[C@@H](Cc2c[nH]c3ccccc23)C(=O)N[C@@H](CCN)C(=O)N[C@@H](Cc2cn(CC(=O)O)c3ccccc23)C(=O)N1C` [Example 11144] ({CH2CO}-Y[NMeA]DP[Dap]L[d(cisHyp)]W[Dab][Trp(1-CH2COOH)][NMeNle][NMeNle]ECGGG[Aun]-OH; thioether N-14), the IC50 was 10 to 99 nM.
On the same count and under the same terms, then `CCCC[C@H]1C(=O)N(C)[C@@H](CCCC)C(=O)N[C@@H](CCC(=O)O)C(=O)N[C@H](C(=O)NCCCOCCOCCOCCCNC(=O)CCC(=O)NCCCCCCCCCCC(=O)O)CSCC(=O)N[C@@H](Cc2ccc(O)cc2)C(=O)N(C)[C@@H](C)C(=O)N[C@@H](CC(=O)O)C(=O)N2CCC[C@H]2C(=O)N[C@@H](CN)C(=O)N[C@@H](CC(C)C)C(=O)N2C[C@H](O)C[C@@H]2C(=O)N[C@@H](Cc2c[nH]c3ccccc23)C(=O)N[C@@H](CCN)C(=O)N[C@@H](Cc2cn(CC(=O)O)c3ccccc23)C(=O)N1C` [Example 11145] ({CH2CO}-Y[NMeA]DP[Dap]L[d(cisHyp)]W[Dab][Trp(1-CH2COOH)][NMeNle][NMeNle]EC-X14; thioether N-14), with 0.3 to 9.9 nM.
Same read-out and setting: then `CCCC[C@H]1C(=O)N(C)[C@@H](CCCC)C(=O)N[C@@H](CC(C)C)C(=O)N[C@H](C(=O)NCC(=O)N[C@@H](CC(=O)CCCCOCCOCCOCCCNC(=O)CC[C@H](NC(=O)CCCCCCCCCCCCCCC(=O)O)C(=O)O)C(=O)O)CSCC(=O)N[C@@H](Cc2ccc(O)cc2)C(=O)N(C)[C@@H](C)C(=O)N[C@@H](CC(N)=O)C(=O)N2CCC[C@H]2C(=O)N[C@@H](CN)C(=O)N[C@@H](CC(C)C)C(=O)N2C[C@H](O)C[C@@H]2C(=O)N[C@@H](Cc2c[nH]c3ccccc23)C(=O)N[C@@H](CCN)C(=O)N[C@@H](Cc2cn(CC(=O)O)c3ccccc23)C(=O)N1C` [Example 11158] ({CH2CO}-Y[NMeA]NP[Dap]L[d(cisHyp)]W[Dab][Trp(1-CH2COOH)][NMeNle][NMeNle]LCG[X23]([γGlu-C16 diacid])-OH; thioether N-14), with 10 to 99 nM; and `CCCC[C@H]1C(=O)N(C)[C@@H](CCCC)C(=O)N[C@@H](CC(C)C)C(=O)N[C@H](C(=O)NCC(=O)N[C@@H](CCC(=O)NCCCOCCOCCOCCCNC(=O)CC[C@H](NC(=O)CCCCCCCCCCCCCCC(=O)O)C(=O)O)C(=O)O)CSCC(=O)N[C@@H](Cc2ccc(O)cc2)C(=O)N(C)[C@@H](C)C(=O)N[C@@H](CC(N)=O)C(=O)N2CCC[C@H]2C(=O)N[C@@H](CN)C(=O)N[C@@H](CC(C)C)C(=O)N2C[C@H](O)C[C@@H]2C(=O)N[C@@H](Cc2c[nH]c3ccccc23)C(=O)N[C@@H](CCN)C(=O)N[C@@H](Cc2cn(CC(=O)O)c3ccccc23)C(=O)N1C` [Example 11159] ({CH2CO}-Y[NMeA]NP[Dap]L[d(cisHyp)]W[Dab][Trp(1-CH2COOH)][NMeNle][NMeNle]LCGE(X13)-OH; thioether N-14), with 10 to 99 nM.

The values above are taken from US10633419B2, “Immunomodulators” (BRISTOL-MYERS SQUIBB COMPANY, priority 2014, dated 2020).
